Laboratory results reported in patent EP0947820A2, “Method for sample preparation” (Evotec BioSystems GmbH, priority 1998, dated 1999).

Biological target: HIV Reverse Transcriptase (HIV-RT) (Human immunodeficiency virus type 1 group M subtype B, UniProt P04585)
Experiment: primer extension assay using HIV Reverse Transcriptase after dry-storage of the inhibitor, read out by FCS
Type: biochemical
Conditions: stored in a desiccator overnight at room-temperature, reaction 40°C, 2 min
Experimental: The method, according to claim 1 was used for a primer extension assay using HIV Reverse Transcriptase (HIV-RT). Precoating the assay plate: 1 µl aliquots of 0.1% (w/v) aqueous solution of HBC (2-hydroxypropyl-β-cyclodextrin) was pipetted into the wells of a nanotiter plate and subjected to a flow of nitrogen gas until all the solvent (water) was evaporated. […] As a control, a section of the nanotiter plate was not coated with HBC. The plate was subsequently loaded with 1 µl (1 mg/ml) of the HIV Reverse Transcriptase Inhibitor AZT (3'Azido-3'deoxythymidine) contained in 50 mM DMSO/ 10 mM NaCl. The solvent (DMSO/water) evaporated by exposure to a flow of nitrogen gas at room-temperature. As a control, some wells of the nanotiter plate (coated and non-coated) were not charged with AZT. The plates were stored in a desiocator overnight at room-temperature.
The primer extension assay was performed by pipetting 900 nanoliter of a reaction mix containing: 2 pmol TMR-lablled 20 base oligo deoxynucleotide anneald to a 200 base RNA-template (gag region of the HIV genome), 50 mM Tris-HCl pH 8.2, dissolved, 50 mM NaCl, 1 mM of each dNTP. The nanotiter plate was incubated at 40°C for 2 min and the extension reaction stopped by the addition of 100 nanoliter 0.5 M EDTA. The primer extension products were analyzed by FCS.
• 1. […]

Cc1cn([C@H]2C[C@H](N=[N+]=[N-])[C@@H](CO)O2)c(=O)[nH]c1=O [AZT, 3'Azido-3'deoxythymidine]
Primer extension (AZT 1 µl (1 mg/ml) dried in nanotiter plate wells not coated with HBC): only partially inhibited
Primer extension (AZT 1 µl (1 mg/ml) dried in nanotiter plate wells precoated with HBC (1 µl of 0.1% w/v)): inhibited
